US3950525A, “Relaxation of smooth muscle in a mammal” (Pfizer Inc., priority 1975, dated 1976)
Where a name gives a salt, the structure may show the parent alone. Read-outs that look alike come from different tables or passages of the source.

Columns and labels:
[1] = test system: histamine aerosol induced bronchoconstriction; assay: Bronchodilator Activity (protection of conscious guinea pigs against histamine aerosol); format: in vivo; conditions: for inhibition in vivo at 60 mg/kg: Cavia porcellus, 1 h, read-out: % Protection
Method: Subsequent to this administration, each animal is challenged with histamine aerosol. […] Immediately after the container is subjected to the histamine spray the animal is placed within it. At the end of one minute of exposure, the respiratory status, which is a reflection of bronchoconstriction, is evaluated. Evaluation levels are designated and scored as normal breathing (0), slight deepened breathing (1), labored breathing (2), severely labored breathing and […] (3) and unconsciousness (4). Each group of animals contains 8 to 10 individual and a control group containing the same approximate number is used. […] The dose, which is given orally, is 60 mg./kg. and the animals are challenged with histamine 60 minutes later.

[2] = test system: collagen induced platelet aggregation; assay: In Vitro Inhibition of Platelet Aggregation (collagen induced, rabbit platelet-rich plasma); format: cell-based; conditions: Oryctolagus cuniculus, 10 min; for inhibition at 600 µM: 6 × 10^^-4 mol./l.; for inhibition at 60 µM: 6 × 10^^-5 mol./l.; for inhibition at 6 µM: 6 × 10^^-6 mol./l.
Method: The ability of the compounds of the present invention to inhibit platelet aggregation in vitro is measured according to the method of Born, et al., J. Physiol., 168, 178 (1963) and comprises the following procedure: Anesthetized male rabbits are bled from a carotid artery into plastic centrifuge tubes containing 0.1 volume 3% sodium citrate. Platelet-rich plasma is separated by centrifugation at 100 G for 10 minutes at 20° C. […] After 10 minutes of incubation with the platelet-rich plasma at room temperature, collagen, a protein known to cause platelet aggregation, is added (0.27 ml. collagen/4 ml. plasma) and changes in the optical density are followed with a Spectronic 20 colorimeter attached to a Houston Instrument TY Recorder. Platelet aggregation is indicated by a decrease in optical density. The relative potency of the compounds of the present invention are thus rated on their ability to inhibit (percent) collagen induced platelet aggregation.

[3] = test system: collagen induced platelet aggregation; assay: In Vivo Inhibition of Platelet Aggregation (collagen induced aggregation in plasma of dosed dogs); set-up: species or system mongrel dogs; conditions: 25 mg./kg. P.O.
Method: The capacity of the compounds of the present invention to inhibit platelet aggregation in a modified in vivo test is measured by the following procedure: Unanesthetized fasted adult mongrel dogs of either sex are dosed orally (P.O.) or intravenously (I.V.) with the particular test compound. Blood samples are taken at hourly intervals and placed in plastic centrifuge tubes containing 0.1 volume 3% sodium citrate. Platelet-rich plasma is separated by centrifugation at 100 G for 10 minutes at 20° C. and treated with a collagen suspension in saline. The effect of two different levels of collagen concentration are examined; the first is a 1:20 dilution, i.e. 1 ml. of collagen suspension per 20 ml. of platelet-rich plasma (high dose), and the second, a 1:40-50 dilution (low dose). Changes in optical density are then followed with a Spectronic 20 colorimeter attached to a Houston Instrument TY Recorder. Platelet aggregation is indicated by a decrease in optical density. […] Measurements are carried out on the hourly samples, allowing for the determination of a duration of the initial effect.

[4] = test system: collagen induced platelet aggregation; assay: In vitro Inhibition of Platelet Aggregation in Human Plasma (collagen induced); format: cell-based; conditions: human platelet-rich plasma
Method: Anesthetized male rabbits are bled from a carotid artery into plastic centrifuge tubes containing 0.1 volume 3% sodium citrate. Platelet-rich plasma is separated by centrifugation at 100 G for 10 minutes at 20° C. Plasma from 3 animals is pooled; 5 ml. samples are placed into clear plastic curvettes and stirred at 1000 rpm, followed by the addition of compounds of the present invention at levels of 6 × 10^^-4 , 10^^-5 and 10^^-6 moles/liter. After 10 minutes of incubation with the platelet-rich plasma at room temperature, collagen, a protein known to cause platelet aggregation, is added (0.27 ml. collagen/4 ml. plasma) and changes in the optical density are followed with a Spectronic 20 colorimeter attached to a Houston Instrument TY Recorder. Platelet aggregation is indicated by a decrease in optical density. The relative potency of the compounds of the present invention are thus rated on their ability to inhibit (percent) collagen induced platelet aggregation.
The procedure of Example XLV is repeated except that platelet-rich plasma from nine human volunteers is employed in place of rabbit plasma. 4-(Diethylamino)-6-phenylpyrimidine hydrochloride provides the following inhibition (%) of collagen induced platelet aggregation at the indicated concentrations: […]

[5] = 60 mg./kg. oral, histamine challenge 60 minutes later

With CCN(CC)c1cc(-c2cccc([N+](=O)[O-])c2)ncn1 [Ar=3-NO2C6H4; R1=C2H5; R2=C2H5; R3=H, 4-Diethylamino-6-(m-nitrophenyl)pyrimidine hydrochloride] as the compound, how does the inhibition in vivo at 60 mg/kg [1, 5] read?
Its inhibition in vivo at 60 mg/kg is 20%.

And the inhibition at 600 µM [2]?
Its inhibition at 600 µM is 99%.

And the inhibition at 60 µM [2]?
The inhibition at 60 µM was 93%.

And the inhibition at 6 µM [2]?
Its inhibition at 6 µM is 25%.

With Oc1cc(-c2ccccc2)ncn1 [R3=H, 4-Hydroxy-6-phenylpyrimidine] as the compound, how does the inhibition in vivo at 60 mg/kg ([1]; po) read?
Its inhibition in vivo at 60 mg/kg is 12%.

With CC(C)c1c(O)ncnc1-c1ccccc1 [R3=i-C3H7] as the compound, how does the inhibition in vivo at 60 mg/kg ([1]; po) read?
The inhibition in vivo at 60 mg/kg was 16%.

For CCN(CC)c1cc(-c2ccco2)ncn1 [Ar=2-furyl; R1=C2H5; R2=C2H5; R3=H, 4-Diethylamino-6-(2-furyl)pyrimidine hydrochloride], which inhibition in vivo at 60 mg/kg [1, 5] is on record?
Its inhibition in vivo at 60 mg/kg is 15%.

For CCc1c(-c2ccc3ccccc3c2)ncnc1N(CC)CC [Ar=2-naphthyl; R1=C2H5; R2=C2H5; R3=C2H5, 4-Diethylamino-5-ethyl-6-(2-naphthyl)pyrimidine hydrochloride], which inhibition in vivo at 60 mg/kg ([1]; po) is on record?
Its inhibition in vivo at 60 mg/kg is 47%.

With CCCc1c(-c2cccc(NC(C)=O)c2)ncnc1N(CC)CC as the compound, how does the inhibition in vivo at 60 mg/kg ([1]; po) read?
Its inhibition in vivo at 60 mg/kg is 29%.

With CCN(CC)c1cc(-c2ccccc2)ncn1.Cl [Ar=C6H5; R1=C2H5; R2=C2H5; R3=H, 4-Diethylamino-6-phenylpyrimidine hydrochloride] as the compound, how does the Duration [3] read?
The Duration was 5 h.

And the “Inhibition to Collagen, High” value ([3]; high collagen (1:20 dilution))?
The value was “Complete (complete (95-100%))”.

And the “Inhibition to Collagen, Low” value ([3]; low collagen (1:40-50 dilution))?
The value was “Complete (complete (95-100%))”.

What about the “Mean % Inhibition” value ([4]; 6 × 10^^-4 mol./l.) of the same compound?
The value was 73%.

And the “Mean % Inhibition” value ([4]; 6 × 10^^-5 mol./l.)?
The value was 59%.

And the “Mean % Inhibition” value ([4]; 6 × 10^^-6 mol./l.)?
The value was 52%.

What about the “Mean % Inhibition” value ([4]; 6 × 10^^-7 mol./l.) of the same compound?
Its value is 15%.

And the inhibition at 600 µM [2]?
The inhibition at 600 µM was 99%.

What about the inhibition at 6 µM [2] of the same compound?
The inhibition at 6 µM was 99%.

With CCCN(CCC)c1ncnc(-c2cccc(NC(C)=O)c2)c1C as the compound, how does the inhibition in vivo at 60 mg/kg [1, 5] read?
The inhibition in vivo at 60 mg/kg was 17%.

CCN(CC)c1cc(-c2cccc(NC(=O)C(C)C)c2)ncn1 [4-diethylamino-6-(m-isobutrylaminophenyl)pyrimidine] was tested. Which inhibition in vivo at 60 mg/kg ([1]; po) did it give?
Its inhibition in vivo at 60 mg/kg is 22%.

CCc1c(-c2cccc(NC(C)=O)c2)ncnc1N(C)C was tested. Which inhibition in vivo at 60 mg/kg [1, 5] did it give?
Its inhibition in vivo at 60 mg/kg is 10%.

Which results are given for CCc1c(O)ncnc1-c1ccccc1 [R3=C2H5, 4-hydroxy-5-ethyl-6-phenylpyrimidine]?
inhibition in vivo at 60 mg/kg [1, 5]: 62%; activity as a bronchodilator (in words) ([1]; guinea pig, in vivo): unexpected, outstanding activity as a bronchodilator

With CCC(=O)Nc1cccc(-c2cc(N(CC)CC)ncn2)c1 [4-diethylamino-6-(m-propionylaminophenyl)pyrimidine] as the compound, how does the inhibition in vivo at 60 mg/kg [1, 5] read?
The inhibition in vivo at 60 mg/kg was 30%.

And the inhibition at 600 µM [2]?
The inhibition at 600 µM was 99%.

And the inhibition at 60 µM [2]?
The inhibition at 60 µM was 82%.

What about the inhibition at 6 µM [2] of the same compound?
The inhibition at 6 µM was 13%.

How did the inhibition in vivo at 60 mg/kg [1, 5] turn out when CCCN(CCC)c1cc(-c2cccc(NC(C)=O)c2)ncn1 [4-di-n-propylamino-6-(m-acetylaminophenyl)-pyrimidine] was run?
The inhibition in vivo at 60 mg/kg was 30%.

And the inhibition at 600 µM [2]?
Its inhibition at 600 µM is 88%.

What about the inhibition at 60 µM [2] of the same compound?
The inhibition at 60 µM was 29%.

And the inhibition at 6 µM [2]?
Its inhibition at 6 µM is 22%.

Which results are given for CCN(CC)c1cc(-c2cccc(NS(C)(=O)=O)c2)ncn1?
inhibition in vivo at 60 mg/kg [1, 5]: 19%; inhibition at 600 µM [2]: 95%; inhibition at 60 µM [2]: 21%; inhibition at 6 µM [2]: 9%

CCN(CC)c1cc(-c2cccc(NC(C)=O)c2)ncn1 [Ar=3-CH3CONHC6H4; R1=C2H5; R2=C2H5; R3=H, 4-Diethylamino-6-(m-acetylaminopheny)pyrimidine hydrochloride] was tested. Which inhibition in vivo at 60 mg/kg [1, 5] did it give?
The inhibition in vivo at 60 mg/kg was 40%.

What about the inhibition at 60 µM [2] of the same compound?
Its inhibition at 60 µM is 16%.

What about the inhibition at 6 µM [2] of the same compound?
The inhibition at 6 µM was 14%.

Cc1c(O)ncnc1-c1ccccc1 [R3=CH3] was tested. Which inhibition in vivo at 60 mg/kg [1, 5] did it give?
Its inhibition in vivo at 60 mg/kg is 22%.

How did the inhibition in vivo at 60 mg/kg [1, 5] turn out when CCc1c(-c2cccc(NC(C)=O)c2)ncnc1N(CC)CC was run?
The inhibition in vivo at 60 mg/kg was 35%.

Which inhibition in vivo at 60 mg/kg [1, 5] does the source give for CCCc1c(O)ncnc1-c1ccccc1 [R3=n-C3H7] here?
The inhibition in vivo at 60 mg/kg was 25%.

For CCN(CC)c1ncnc(-c2cccc(NC(C)=O)c2)c1C, which inhibition in vivo at 60 mg/kg [1, 5] is on record?
The inhibition in vivo at 60 mg/kg was 43%.

How did the inhibition in vivo at 60 mg/kg ([1]; po) turn out when CCN(CC)c1cc(-c2ccc(NC(C)=O)cc2)ncn1 [Ar=4-CH3CONHC6H4; R1=C2H5; R2=C2H5; R3=H, 4-diethylamino-6-(p-acetylaminophenyl)pyrimidine] was run?
The inhibition in vivo at 60 mg/kg was 56%.

Which inhibition in vivo at 60 mg/kg ([1]; po) does the source give for Cn1c(=O)c2[nH]cnc2n(C)c1=O [theophylline, reference compound] here?
Its inhibition in vivo at 60 mg/kg is 25%.
